Test results published in patent publication US20120065196A1, “AMIDE COMPOUNDS” (priority 2006, published 2012).

Target: T1, human DGAT1 (Homo sapiens, UniProt O75907)
T1 construct: (N); made in house; host or cells: Sf9 insect cells infected with recombinant baculovirus BAC-DGAT1; microsome fraction
T1 sequence (O75907 1-488): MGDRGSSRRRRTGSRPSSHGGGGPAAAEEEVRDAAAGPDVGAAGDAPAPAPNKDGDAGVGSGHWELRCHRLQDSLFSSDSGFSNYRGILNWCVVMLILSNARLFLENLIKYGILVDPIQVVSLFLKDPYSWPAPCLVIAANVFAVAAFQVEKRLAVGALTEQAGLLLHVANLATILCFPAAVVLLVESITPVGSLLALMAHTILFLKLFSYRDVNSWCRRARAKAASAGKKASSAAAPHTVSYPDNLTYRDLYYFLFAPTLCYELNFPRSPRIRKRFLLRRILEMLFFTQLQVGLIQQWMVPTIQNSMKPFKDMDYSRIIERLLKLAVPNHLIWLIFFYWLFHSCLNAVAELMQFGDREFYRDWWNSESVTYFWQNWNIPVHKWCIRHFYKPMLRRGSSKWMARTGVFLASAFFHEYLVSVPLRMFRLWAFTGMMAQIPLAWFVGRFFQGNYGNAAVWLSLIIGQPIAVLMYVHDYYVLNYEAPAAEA
Test: Determination of DGAT inhibitory activity (triglyceride synthesis with DGAT1 high expression Sf9 microsome)
Type: biochemical
Details: 25 μM dioleoylglycerol, 25 μM [14C]-Oleoyl-CoA, 32° C., 20 min, read-out: hDGAT1 IC50
Procedure: Human DGAT1 gene was cloned by PCR using human adipocyte cDNA (Clontech, QUICK-Clone cDNA, human fat cell, cat #637220) as a template and, based on the DGAT1 gene information reported by Case, S. et al. (Proc. Natl. Acad. Sci. U.S.A. 95 (22), 13018-13023 (1998)), a nucleotide sequence (245-1711 of Genbank Accession No. NM_012079) encoding DGAT1 was amplified with the following PCR primer. The primer nucleotide sequence is shown below.
The PCR reaction was conducted using a KOD-plus kit (TOYOBO). The obtained PCR product was electrophoresed on agarose gel (1%), the DNA fragment amplified by PCR was recovered from the gel, and then digested with restriction enzymes EcoRI and SpeI. The DNA treated with the restriction enzymes was electrophoresed on agarose gel (1%), and the obtained DNA fragment was recovered and ligated with plasmid pFASTBAC1 (Invitrogen) digested with restriction enzymes EcoRI and SpeI to give expression plasmid pFB-DGAT1. The nucleotide sequence of the inserted fragment was confirmed and found to be identical with the nucleotide sequence of DGAT1 (245-1711 of Genbank Accession No. NM_012079). Furthermore, using BAC-TO-BAC Baculovirus Expression System (Invitrogen), recombinant baculovirus BAC-DGAT1 was prepared.
SF9 cells were sown at 1×10^6 cells/ml on Sf-900II SFM medium (1 L, Invitrogen) containing 10% fetal calf serum (Trace), 50 mg/L gentamicin (Invitrogen) and 0.1% Pluronic F-68 (Invitrogen), and shaking culture was performed using a 2 L volume Erlenmeyer flask at 27° C., 100 rpm. After culturing for 24 hrs, recombinant baculovirus BAC-DGAT1 (6.7 mL) was added, and the mixture was further cultured for 3 days. The culture medium was centrifuged at 2,000 rpm for 5 min to give virus-infected cells. The infected cells were washed with a phosphate buffered saline (Invitrogen), centrifuged under the same conditions, and the cells were preserved at −80° C. The cryopreserved cells were thawed in ice, suspended in buffer A (50 mM Tris buffer (30 mL, pH 7.4) containing 20% glycerol, 0.15 M NaCl) supplemented with Complete Protease Inhibitor (Boehringer), and ruptured 3 times with a Polytron homogenizer (Kinematica) at 20,000 rpm for 30 sec. The Sf9 microsome fractions were obtained by a conventional method and cryopreserved at −80° C. as a DGAT1 high expression Sf9 microsome.
As a DGAT1 reaction buffer, a solution having a composition of 100 mM Tris-HCl (pH 7.5), 250 mM sucrose, 150 mM MgCl2, 0.01% bovine serum albumin (BSA) was used. Using this buffer, a given concentration of the test compound and a composition (100 μl) of 25 μM dioleoylglycerol, 25 μM [^14C]-Oleoyl-CoA, 5 μg protein/ml DGAT1 high expression Sf9 microsome, and 1% acetone were subjected to a triglyceride synthesis reaction at 32° C. for 20 min. A mixture of 300 μL of chloroform:methanol (=1:2) was added to the reaction mixture to quench the reaction. The reaction mixture was sufficiently mixed and distilled water (200 μL) was added to partition the mixture between a chloroform layer (lower layer) and an aqueous layer (upper layer). The chloroform layer (50 μL) was spotted on a thin layer chromatography silica gel plate (TLC plate, Merck) and developed with a solvent (n-hexane:diethyl ether:ethyl acetate:acetic acid=255:30:15:0.6). The developed TLC plate was dried, contacted with a BAS imaging plate (manufactured by FUJIFILM) and measured with BAS2500 (manufactured by FUJIFILM) 16 hr later to numerically show the amount of [^14C]-triglyceride (TG amount) produced during the reaction. The inhibitory rate was calculated by the following formula:
Inhibitory rate (%)=(1−(TG amount with addition of test compound−blank TG amount)/(control TG amount−blank TG amount))×100 […]

| Compound | IC50 |
| --- | --- |
| CCCC1CCN(C(=O)NCCNC(=O)c2cn(-c3ccccc3)nc2C(F)(F)F)CC1 [Example E15, N-(2-(1-phenyl-3-(trifluoromethyl)-1H-pyrazole-4-carboxamido)ethyl)-4-propylpiperidine-1-carboxamide] | 10 to 100 nM |
| CC(C)c1nnc([C@H]2CC[C@H](C(=O)NCCNC(=O)c3cn(-c4ccccc4)nc3C(F)(F)F)CC2)o1 [Example E163, N-(2-(trans-4-(5-isopropyl-1,3,4-oxadiazol-2-yl)cyclohexanecarboxamido)ethyl)-1-phenyl-3-(trifluoromethyl)-1H-pyrazole-4-carboxamide] | 10 to 100 nM |
| O=C(NCCNC(=O)[C@H]1CC[C@H](c2nc(C3CC3)no2)CC1)c1cn(-c2ccccc2)nc1C(F)(F)F [Example E151, N-(2-(trans-4-(3-Cyclopropyl-1,2,4-oxadiazol-5-yl)cyclohexanecarboxamido)ethyl)-1-phenyl-3-(trifluoromethyl)-1H-pyrazole-4-carboxamide] | 10 to 100 nM |
| CC(C)c1nc([C@H]2CC[C@H](C(=O)NCCNC(=O)c3cn(-c4ccccc4F)nc3C(F)(F)F)CC2)no1 [Example E260, 1-(2-fluorophenyl)-N-(2-(trans-4-(5-isopropyl-1,2,4-oxadiazol-3-yl)cyclohexanecarboxamido)ethyl)-3-(trifluoromethyl)-1H-pyrazole-4-carboxamide] | 10 to 100 nM |
| O=C(NCCNC(=O)N1CCC(C(=O)N2CCCC2)CC1)c1cn(-c2ccccc2)nc1C(F)(F)F [Example E63, N-(2-(1-phenyl-3-(trifluoromethyl)-1H-pyrazole-4-carboxamido)ethyl)-4-(pyrrolidine-1-carbonyl)piperidine-1-carboxamide] | 100 to 1000 nM |
| CC(C)c1nc([C@H]2CC[C@H](C(=O)NCCNC(=O)c3cn(-c4ccccc4)nc3C(F)(F)F)CC2)no1 [Example E228, N-(2-(trans-4-(5-isopropyl-1,2,4-oxadiazol-3-yl)cyclohexanecarboxamido)ethyl)-1-phenyl-3-(trifluoromethyl)-1H-pyrazole-4-carboxamide] | 10 to 100 nM |
| CC(C)c1nc([C@H]2CC[C@H](C(=O)NCCNC(=O)c3cn(-c4ccccc4Cl)nc3C(F)(F)F)CC2)no1 [Example E257, 1-(2-chlorophenyl)-N-(2-(trans-4-(5-isopropyl-1,2,4-oxadiazol-3-yl)cyclohexanecarboxamido)ethyl)-3-(trifluoromethyl)-1H-pyrazole-4-carboxamide] | 10 to 100 nM |
| CC(C)(C)c1cnc([C@H]2CC[C@H](C(=O)NCCNC(=O)c3cn(-c4ccccc4)nc3C(F)(F)F)CC2)o1 [Example E214, N-(2-(trans-4-(5-tert-butyloxazol-2-yl)cyclohexanecarboxamido)ethyl)-1-phenyl-3-(trifluoromethyl)-1H-pyrazole-4-carboxamide] | 10 to 100 nM |
| CC(C)c1nc(C2CCN(C(=O)NCCNC(=O)c3cn(-c4ccccc4)nc3C(F)(F)F)CC2)no1 [Example E225, 4-(5-isopropyl-1,2,4-oxadiazol-3-yl)-N-(2-(1-phenyl-3-(trifluoromethyl)-1H-pyrazole-4-carboxamido)ethyl)piperidine-1-carboxamide] | 100 to 1000 nM |
| O=C(NCCNC(=O)[C@H]1CC[C@H](C(=O)c2ccccc2)CC1)c1cn(-c2ccccn2)nc1C(F)(F)F [Example E150, N-(2-(trans-4-benzoylcyclohexanecarboxamido)ethyl)-1-(pyridin-2-yl)-3-(trifluoromethyl)-1H-pyrazole-4-carboxamide] | < 10 nM |

Next, values leading:

| IC50 | Compound |
| --- | --- |
| 10 to 100 nM | O=C(NCCNC(=O)N1CCC(c2nc(-c3cccnc3)no2)CC1)c1cn(-c2ccccc2)nc1C(F)(F)F [Example E101, N-(2-(1-phenyl-3-(trifluoromethyl)-1H-pyrazole-4-carboxamido)ethyl)-4-(3-(pyridin-3-yl)-1,2,4-oxadiazol-5-yl)piperidine-1-carboxamide] |
| 10 to 100 nM | O=C(NCCNC(=O)C1CCc2nc(-c3ccccc3O)sc2C1)c1cn(-c2ccccc2)nc1C(F)(F)F (centres unmarked) [Example E221, 2-(2-hydroxyphenyl)-N-(2-(1-phenyl-3-(trifluoromethyl)-1H-pyrazole-4-carboxamido)ethyl)-4,5,6,7-tetrahydrobenzo[d]thiazole-6-carboxamide] |
| 10 to 100 nM | O=C(NCCNC(=O)C1CCN(S(=O)(=O)c2cccnc2)CC1)c1cn(-c2ccccc2)nc1C(F)(F)F [Example E74, N-(2-(1-phenyl-3-(trifluoromethyl)-1H-pyrazole-4-carboxamido)ethyl)-1-(pyridin-3-ylsulfonyl)piperidine-4-carboxamide] |
| 10 to 100 nM | O=C(NCCNC(=O)[C@H]1CC[C@H](C(=O)c2ccccc2)CC1)c1cn(-c2ccccc2Cl)nc1C(F)(F)F [Example E164, N-(2-(trans-4-benzoylcyclohexanecarboxamido)ethyl)-1-(2-chlorophenyl)-3-(trifluoromethyl)-1H-pyrazole-4-carboxamide] |
| 10 to 100 nM | O=C(NCCNC(=O)C1CCc2c(cnn2-c2ccccc2)C1)c1cn(-c2ccccc2)nc1C(F)(F)F (centres unmarked) [Example E179, 1-phenyl-N-(2-(1-phenyl-3-(trifluoromethyl)-1H-pyrazole-4-carboxamido)ethyl)-4,5,6,7-tetrahydro-1H-indazole-5-carboxamide] |
| 100 to 1000 nM | O=C(NCCNC(=O)N1CCC(NS(=O)(=O)c2ccccc2)CC1)c1cn(-c2ccccc2)nc1C(F)(F)F [Example E114, N-(2-(1-Phenyl-3-(trifluoromethyl)-1H-pyrazole-4-carboxamido)ethyl)-4-(phenylsulfonamido)piperidine-1-carboxamide] |
| 10 to 100 nM | CC(C)c1nc2c(s1)CC(C(=O)NCCNC(=O)c1cn(-c3ccccc3)nc1C(F)(F)F)CC2 (centres unmarked) [Example E242, 2-isopropyl-N-(2-(1-phenyl-3-(trifluoromethyl)-1H-pyrazole-4-carboxamido)ethyl)-4,5,6,7-tetrahydrobenzo[d]thiazole-6-carboxamide] |
| 10 to 100 nM | CC1CN(C(=O)NCCNC(=O)c2cn(-c3ccccc3)nc2C(F)(F)F)CCN1c1ccccc1 (centres unmarked) [Example E64, 3-methyl-4-phenyl-N-(2-(1-phenyl-3-(trifluoromethyl)-1H-pyrazole-4-carboxamido)ethyl)piperazine-1-carboxamide] |
| 100 to 1000 nM | Cn1cnc(-c2ccccc2)c1C1CCN(C(=O)NCCNC(=O)c2cn(-c3ccccc3)nc2C(F)(F)F)CC1 [Example E207, 4-(1-methyl-4-phenyl-1H-imidazol-5-yl)-N-(2-(1-phenyl-3-(trifluoromethyl)-1H-pyrazole-4-carboxamido)ethyl)piperidine-1-carboxamide] |
| 10 to 100 nM | O=C(NCCNC(=O)[C@H]1CC[C@H](c2n[nH]c(=O)o2)CC1)c1cn(-c2ccccc2)nc1C(F)(F)F [Example E197, N-(2-(trans-4-(5-oxo-4,5-dihydro-1,3,4-oxadiazol-2-yl)cyclohexanecarboxamido)ethyl)-1-phenyl-3-(trifluoromethyl)-1H-pyrazole-4-carboxamide] |
